Data on 22 molecules can be found in ChEMBL document CHEMBL2375222, “Synthesis of 1H-1,2,3-triazole linked β-lactam-isatin bi-functional hybrids and preliminary analysis of in vitro activity against the protozoal parasite Trichomonas vaginalis” (Eur J Med Chem, 2013).

SMILES strings stand for the structures.

Series [1] concerns Trichomonas vaginalis. Description: […] activity against Trichomonas vaginalis G3 at 100 uM after 24 hrs by hemocytometry. It is filed as functional. The note with it: G3, 24 h.
Series [2] has as its system Trichomonas vaginalis. Description: […] activity against Trichomonas vaginalis G3 after 24 hrs by hemocytometry. The note with it: G3, 24 h. It is filed as functional.
The test system of series [3] is CHO-K1. The experiment in a line: Cytotoxicity against CHOK1 cells assessed as change in cell morphology at 100 uM by light microscopy. It is filed as cell-based, Cricetulus griseus. The note with it: chinese hamster, cho-k1, 100 µM.
Series [4] has as its system Trichomonas vaginalis. The experiment in a line: […] activity against Trichomonas vaginalis G3 at 10 uM after 24 hrs by hemocytometry. It is filed as functional. The following applies: G3, 24 h.
For series [5], the system named is CHO-K1. The experiment in a line: Cytotoxicity against CHOK1 cells assessed as change in cell morphology by light microscopy. In kind it is cell-based. The following applies: Cricetulus griseus.

The term inhibition denotes the change of the read-out against control, counted positive when it falls. Lower therefore signals little suppression. What is called IC50 is the concentration needed to halve the response being measured. In turn, `O=C1C(=O)N(Cc2cn([C@@H]3C(=O)N(c4ccccc4)[C@@H]3/C=C/c3ccccc3)nn2)c2ccc(Cl)cc21` (relative stereo) came in with an inhibition at 100 µM in series [1] of 100%. In series [2], the half-maximal inhibitory concentration (IC50) was found to be 9.82 µM. The Activity result in series [3] was “Toxic”. Moreover, in series [4], the inhibition at 10 µM stood at 61%.

In turn, `Cc1ccc(N2C(=O)[C@@H](n3cc(CN4C(=O)C(=O)c5ccccc54)nn3)[C@H]2/C=C/c2ccccc2)cc1` returned an inhibition at 100 µM in series [1] of 100%. This molecule also registered an IC50 in series [2] of 27.5 µM. Moreover, in series [3], the Activity entry is given as “Toxic”. The molecule further showed an inhibition at 10 µM in series [4] of 4.9%.

Consider `O=C1C(=O)N(Cc2cn([C@@H]3C(=O)N(Cc4ccccc4)[C@@H]3/C=C/c3ccccc3)nn2)c2ccc(Cl)cc21` (relative stereo), for which, in series [1], testing at 100 µM gave an inhibition of 67.4%. Moreover, the Activity entry in series [3] is “Toxic”. Moreover, the inhibition at 10 µM in series [4] came to 7.3%.

For `O=C1C(=O)N(Cc2cn([C@@H]3C(=O)N(C4CCCCC4)[C@@H]3/C=C/c3ccccc3)nn2)c2ccccc21`, the inhibition at 100 µM in series [1] is 100%. For the same molecule, in series [3], the Activity result is “Toxic”. The molecule further gave an inhibition at 10 µM in series [4] of 26.8%.

In the case of `O=C1C(=O)N(Cc2cn([C@@H]3C(=O)N(c4ccccc4)[C@@H]3/C=C/c3ccccc3)nn2)c2ccccc21` (relative stereo), the inhibition at 100 µM in series [1] was found to be 100%. Besides, the Activity entry in series [3] is reported as “Toxic”. In series [4], this molecule gave an inhibition at 10 µM of 100%.

Take `O=C1C(=O)N(Cc2cn([C@@H]3C(=O)N(c4ccccc4)[C@@H]3/C=C/c3ccccc3)nn2)c2ccc(F)cc21` (relative stereo): in series [1], the inhibition at 100 µM worked out at 100%. For the same molecule, the IC50 in series [2] amounted to 7.06 µM. The Activity entry in series [3] was “Toxic”. Moreover, the inhibition at 10 µM in series [4] amounted to 58.5%.

In series [1], `O=C1C(=O)N(Cc2cn([C@@H]3C(=O)N(C4CCCCC4)[C@@H]3/C=C/c3ccccc3)nn2)c2ccc(Cl)cc21` (relative stereo) had an inhibition at 100 µM of 100%. For the same molecule, the Activity result in series [3] is reported as “Toxic”. In series [4], this molecule had an inhibition at 10 µM of 7.3%.

Regarding `O=C1C(=O)N(Cc2cn([C@@H]3C(=O)N(c4ccccc4)[C@@H]3/C=C/c3ccccc3)nn2)c2ccc(Br)cc21` (relative stereo), the inhibition at 100 µM in series [1] turned out to be 100%. This molecule yielded an IC50 in series [2] of 9.34 µM. Also, the Activity entry in series [3] was “Toxic”. In series [4], this molecule registered an inhibition at 10 µM of 83%.

As for `O=C1C(=O)N(Cc2cn([C@@H]3C(=O)N(c4ccc(F)cc4)[C@@H]3/C=C/c3ccccc3)nn2)c2ccc(Cl)cc21` (relative stereo), testing at 100 µM in series [1] gave an inhibition of 100%. In series [3], the Activity entry is recorded as “Toxic”. For the same molecule, in series [4], the inhibition at 10 µM turned out to be 14.6%.

For `O=C1C(=O)N(Cc2cn([C@@H]3C(=O)N(c4ccc(Cl)cc4)[C@@H]3/C=C/c3ccccc3)nn2)c2ccccc21` (relative stereo), testing at 100 µM in series [1] gave an inhibition of 100%. This molecule also showed an IC50 in series [2] of 8.27 µM. Besides, the Activity result in series [3] was “Toxic”. This molecule returned an inhibition at 10 µM in series [4] of 80.5%.

Regarding `O=C1C(=O)N(Cc2cn([C@@H]3C(=O)N(C4CCCCC4)[C@@H]3/C=C/c3ccccc3)nn2)c2ccc(F)cc21` (relative stereo), in series [1], the inhibition at 100 µM amounted to 100%. Moreover, in series [3], the Activity result is recorded as “Toxic”. The molecule further yielded an inhibition at 10 µM in series [4] of 0%.

Molecule `O=C1C(=O)N(Cc2cn([C@@H]3C(=O)N(c4ccc(F)cc4)[C@@H]3/C=C/c3ccccc3)nn2)c2ccccc21` (relative stereo) came in with an inhibition at 100 µM in series [1] of 100%. Moreover, the IC50 in series [2] and in series [5] was 7.69 µM in each case. The molecule also yielded an inhibition at 10 µM in series [4] of 38.5%.

Turning to `Cc1ccc(N2C(=O)[C@@H](n3cc(CN4C(=O)C(=O)c5cc(Cl)ccc54)nn3)[C@H]2/C=C/c2ccccc2)cc1` (relative stereo), the inhibition at 100 µM in series [1] was determined as 100%. Further, inhibition in series [2] was half-maximal at 10.1 µM (IC50). Also, the Activity entry in series [3] is “Toxic”. The molecule also gave an inhibition at 10 µM in series [4] of 48.8%.

As for `Cc1ccc2c(c1)C(=O)C(=O)N2Cc1cn([C@@H]2C(=O)N(C3CCCCC3)[C@@H]2/C=C/c2ccccc2)nn1` (relative stereo), in series [1], the inhibition at 100 µM amounted to 95.7%. This molecule returned an IC50 in series [2] of 44.5 µM. In addition, in series [3], the Activity result was “Toxic”. Further, the inhibition at 10 µM in series [4] came out at 9.8%.

Take `O=C1C(=O)N(Cc2cn([C@@H]3C(=O)N(Cc4ccccc4)[C@@H]3/C=C/c3ccccc3)nn2)c2ccc(F)cc21` (relative stereo): in series [1], the inhibition at 100 µM came to 19.6%. Further, the Activity result in series [3] is listed as “Toxic”. The molecule further came in with an inhibition at 10 µM in series [4] of 0%.

`Cc1ccc(N2C(=O)[C@@H](n3cc(CN4C(=O)C(=O)c5cc(F)ccc54)nn3)[C@H]2/C=C/c2ccccc2)cc1` (relative stereo) displayed an inhibition at 100 µM in series [1] of 100%. Besides, the 50% inhibitory concentration (IC50) in series [2] is 22.1 µM. The Activity result in series [3] is on record as “Toxic”. Further, in series [4], the inhibition at 10 µM came to 58.5%.

Take `O=C1C(=O)N(Cc2cn([C@@H]3C(=O)N(C4CCCCC4)[C@@H]3/C=C/c3ccccc3)nn2)c2ccc(Br)cc21` (relative stereo): in series [1], the inhibition at 100 µM was 100%. For the same molecule, the Activity entry in series [3] was “Toxic”. The same molecule gave an inhibition at 10 µM in series [4] of 4.9%.

In series [1], `O=C1C(=O)N(Cc2cn([C@@H]3C(=O)N(c4ccc(F)cc4)[C@@H]3/C=C/c3ccccc3)nn2)c2ccc(F)cc21` (relative stereo) showed an inhibition at 100 µM of 100%. Also, the Activity entry in series [3] is “Toxic”. The inhibition at 10 µM in series [4] came to 19.5%.

The molecule `O=C1C(=O)N(Cc2cn([C@@H]3C(=O)N(c4ccc(F)cc4)[C@@H]3/C=C/c3ccccc3)nn2)c2ccc(Br)cc21` (relative stereo) came in with an inhibition at 100 µM in series [1] of 100%. For the same molecule, the Activity entry in series [3] is “Toxic”. The molecule also displayed an inhibition at 10 µM in series [4] of 0%.

Turning to `Cc1ccc2c(c1)C(=O)C(=O)N2Cc1cn([C@@H]2C(=O)N(c3ccccc3)[C@@H]2/C=C/c2ccccc2)nn1`, at 100 µM the inhibition in series [1] was 82.6%. Besides, in series [3], the Activity result is listed as “Toxic”. At 10 µM the inhibition in series [4] was 0%.

Regarding `O=C1C(=O)N(Cc2cn([C@@H]3C(=O)N(c4ccc(Cl)cc4)[C@@H]3/C=C/c3ccccc3)nn2)c2ccc(Cl)cc21` (relative stereo), in series [1], testing at 100 µM gave an inhibition of 100%. The IC50 in series [2] was 9.94 µM. Moreover, the Activity result in series [3] is reported as “Toxic”. At 10 µM the inhibition in series [4] was 53.7%.

Molecule `O=C1C(=O)N(Cc2cn([C@@H]3C(=O)N(Cc4ccccc4)[C@@H]3/C=C/c3ccccc3)nn2)c2ccccc21` (relative stereo) displayed an inhibition at 100 µM in series [1] of 100%. Also, in series [2], the midpoint of inhibition, the IC50, lay at 8.68 µM. Moreover, the Activity result in series [3] is reported as “Toxic”. This molecule had an inhibition at 10 µM in series [4] of 7.8%.
